Test results as given in PubChem BioAssay AID1421 (Emory University Molecular Libraries Screening Center, 2008).
Active and inactive are the calls of the source. The rule behind the calls is not given here.

Molecular target: Prostaglandin E2 receptor EP2 subtype (Homo sapiens) (UniProt P43116)
Assay: compounds shifting PGE2 potency at EP2 – cell-based, human EP2, PGE2 EC50 shift, dose response (AID 1421)
Details: EP2-expressing cells, PGE2 EC50 shift by compound

Prostaglandin E2 receptor EP2 subtype (Homo sapiens), sequence (P43116 whole entry, looked up): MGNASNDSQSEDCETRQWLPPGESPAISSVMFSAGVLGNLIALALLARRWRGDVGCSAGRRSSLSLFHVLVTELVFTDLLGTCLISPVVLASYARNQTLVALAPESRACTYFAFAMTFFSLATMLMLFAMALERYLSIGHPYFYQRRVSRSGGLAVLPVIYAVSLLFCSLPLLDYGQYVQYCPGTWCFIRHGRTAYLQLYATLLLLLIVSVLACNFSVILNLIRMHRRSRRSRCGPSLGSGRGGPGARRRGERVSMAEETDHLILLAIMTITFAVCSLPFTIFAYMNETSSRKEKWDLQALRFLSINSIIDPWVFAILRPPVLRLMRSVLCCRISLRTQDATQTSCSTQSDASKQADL

Compound | outcome
Fc1ccc(Oc2nc(-c3ccccc3)nnc2C(F)(F)F)cc1 | active
C/C(=N\O)C(=O)OC1CC(C)CCC1C(C)C (stereo not given) | active

Second part, the molecule after the results:

outcome | Compound
active | CC(C)Sc1cc(N2CCOCC2)nc(-c2ccccc2)n1
active | COc1cc2c(cc1OC)-c1cc(N3CCCc4ccccc43)nc(=O)n1CC2
active | Cc1cc(C)n(-c2nc3ccccc3nc2Nc2ccc3[nH]c(=O)[nH]c3c2)n1
active | CCOC(=O)C1=C(CN2CCc3ccccc32)NC(=O)NC1c1ccc(Cl)cc1 (stereo not given)

Same assay, conditions: EP2-expressing cells, PGE2 EC50 shift by compound; measured here: PGE2 EC50 at 6.7 uM compound

Compound | PGE2 EC50 with compound [nM]
C=CCOc1ccccc1CNc1cccc(F)c1 | 0.84
CCOC(=O)CSc1ncnc2c1sc1nc(N3CCOCC3)c3c(c12)CCCC3 | 0.32
CCOC(=O)N1CCC(=C2c3ccc(Cl)cc3CCc3cccnc32)CC1 | 0.95
CC/C(=C\C1CCCCC1)C(NP(=O)(c1ccccc1)c1ccccc1)c1ccccc1 (stereo not given) | 1.01
CCOC(=O)c1ccccc1NC(=O)CSc1ncc(C(=O)OCC)c(N)n1 | 0.96
Fc1ccc(Oc2nc(-c3ccccc3)nnc2C(F)(F)F)cc1 | 0.66
CCOC(=O)c1c(C2CC2)csc1NC(=O)CSCc1c(C)noc1C | 1.25
C/C(CCC(C)C)=N\NC(=S)NCc1ccccc1 | 0.88
c1ccc(CCc2cccnc2)nc1 | 1.62
CCN(CC)c1nc(C#N)nc(N(CC)CC)n1 | 0.95
C#CCSc1nc(Cc2ccc(Cl)cc2)nc2ccccc12 | 1.22
CCC(=O)N(CC)c1nc(-c2cc(OC)ccc2OC)cs1 | 1.09
FC(F)(F)c1nc(=S)c2ccccc2[nH]1 | 2.84
COc1cc(S(=O)(=O)N(Cc2cccnc2)Cc2ccco2)ccc1-n1cnnn1 | 1.45
C=C(C)COc1ccc2c(c1)CC[C@@H]1[C@H]3C/C(=N/O)C(=O)[C@]3(C)CC[C@@H]21 | 1.03
COc1ccc(CCN(Cc2nc(-c3ccccc3)no2)Cc2nc(-c3ccccc3)no2)cc1OC | 1.2
COc1ccc(C2=Nn3c(nnc3C3CCCCC3)SC2)cc1OC | 1.58
CCCCNc1nc(N(C)c2ccccc2)nc(-n2ccnc2)n1 | 1.11
CS(=O)(=O)N(Cc1ccccc1)c1ccccc1C(=O)Nc1ccccc1C(=O)NCc1ccco1 | 3.04
O=C(/C(=C/O)N=Nc1ccccc1)c1cccs1 | 1.19
COc1ccc(C(=O)c2ccccc2)c(O)c1 | 0.92
C=CCn1c(CCc2cc(C(C)(C)C)c(O)c(C(C)(C)C)c2)n[nH]c1=S | 1.14
CCN(CCO)c1ncnc2c1sc1nc(C(C)C)c3c(c12)CC(C)(C)OC3 | 0.69

The remaining lines, values ahead:

PGE2 EC50 with compound [nM] | Compound
0.94 | Cc1cccc(Cn2c(N3CCN(c4ccccc4)CC3)nc3c2c(=O)n(C)c(=O)n3C)c1
0.98 | O=c1[nH]ncc2c3ccccc3n(Cc3cccc(Cl)c3)c12
0.64 | Cc1ccc2oc(=O)n(Cc3ccccc3OC(C)C)c2c1
1.33 | COc1cccc(-c2nc(N3CC(C)CC(C)C3)c3ccccc3n2)c1O (stereo not given)
1.28 | C=C(C)Cn1c(C)cc(C)c(S(=O)(=O)c2cccc(C)c2)c1=O
1.36 | CCCc1cc(-c2n[nH]c(=S)n2Cc2ccccc2)cs1
1.05 | CN(Cc1ccccc1)c1nc2c(c(=O)[nH]c(=O)n2C)n1Cc1ccccc1Cl
1.03 | CC(C)(C)n1nnnc1C(c1ccncc1)N(Cc1ccccc1)Cc1ccco1 (stereo not given)
1.22 | CCOC(=O)c1c(NC(=O)c2ccc(N3C(=O)[C@@H]4[C@H](C3=O)[C@H]3C=C[C@@H]4C3)cc2)sc2c1CC(C)CC2 (stereo not given in full)
2.68 | C=CCn1c(=O)c2c(nc(-c3ccc(S(=O)(=O)O)cc3)n2C)n(C)c1=O
1.25 | CCOC(=O)c1sc2nccc(N(C)C)c2c1N=CNOCc1ccccc1
1.22 | CC(C)Sc1cc(N2CCOCC2)nc(-c2ccccc2)n1
0.92 | COc1ccc(N2CCN(c3nc4c(c(=O)n(C)c(=O)n4C)n3Cc3ccccc3)CC2)cc1
0.78 | O=C(CSc1nc2ccccc2o1)Nc1ccccc1N1CCCCCC1
1.13 | CCOC(=O)c1ccccc1NC1c2ccccc2C(=O)N1c1cc(C)ccn1 (stereo not given)
1.98 | COc1cc2c(cc1OC)-c1cc(N3CCCc4ccccc43)nc(=O)n1CC2
2.69 | Cc1ccc(S(=O)(=O)N2c3ccccc3OCC2C(C)(C)C)cc1 (stereo not given)
1.19 | Cc1ccc2nc(N3CCC(C(=O)O)CC3)nc(-c3ccccc3)c2c1
0.7 | Cc1ccc(-c2nn(-c3ccccc3)cc2CN(Cc2ccccc2)C(=O)c2ccco2)o1
0.88 | CCCC(=O)O[C@H]1C[C@@H](C)N(C(=O)c2ccccc2)c2ccc(C)cc21
0.62 | CC(Sc1nnc(-c2cccs2)n1Cc1ccccc1)C(=O)NCc1ccc2c(c1)OCO2 (stereo not given)
2.64 | CC1CC(C)CN(CC(=O)NC(c2ccccc2)c2ccccc2)C1 (stereo not given)
0.83 | Cc1cc(C)n(-c2nc3ccccc3nc2Nc2ccc3[nH]c(=O)[nH]c3c2)n1
1.35 | Cc1ccc(Nc2nc(CSc3nnc(-c4ccccc4C)n3C)cs2)cc1
1.15 | Cc1ccccc1Cn1c2ccccc2c2cn[nH]c(=O)c21
0.83 | CCn1c2ccccc2c2cc([N+](=O)[O-])ccc21
